Results from PubChem BioAssay (NCI).
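96-well plates; 48 h exposure; 5 concentrations. Endpoints by linear interpolation between flanking doses. Not reached: highest tested concentration assigned. GI50 marks 50% less growth. TGI is the concentration that stops growth completely.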

Legend:
Assay in all cases: DTP human tumour cell line panel, 48 h
UO-31 renal = system: UO-31 renal
NCI/ADR-RES ovarian = system: NCI/ADR-RES ovarian
UACC-257 melanoma = system: UACC-257 melanoma
MOLT-4 leukemia = system: MOLT-4 leukemia
DU-145 prostate = system: DU-145 prostate
IGROV1 ovarian = system: IGROV1 ovarian
SW-620 colon = system: SW-620 colon
EKVX NSCLC = system: EKVX NSCLC
786-0 renal = system: 786-0 renal
U251 CNS = system: U251 CNS
BT-549 breast = system: BT-549 breast
T-47D breast = system: T-47D breast
NCI-H23 lung = system: NCI-H23 lung
M14 melanoma = system: M14 melanoma
SR leukemia = system: SR leukemia
SK-MEL-2 melanoma = system: SK-MEL-2 melanoma
MDA-MB-231 breast = system: MDA-MB-231 breast
KM12 colon = system: KM12 colon
NCI-H460 lung = system: NCI-H460 lung
OVCAR-4 ovarian = system: OVCAR-4 ovarian
A549 NSCLC = system: A549 NSCLC
HCT-116 colon = system: HCT-116 colon
HOP-92 NSCLC = system: HOP-92 NSCLC
HCC-2998 colon = system: HCC-2998 colon
SK-MEL-28 melanoma = system: SK-MEL-28 melanoma
UACC-62 melanoma = system: UACC-62 melanoma
MCF7 breast = system: MCF7 breast
A498 renal = system: A498 renal
COLO 205 colon = system: COLO 205 colon
OVCAR-3 ovarian = system: OVCAR-3 ovarian
SK-OV-3 ovarian = system: SK-OV-3 ovarian
ACHN renal = system: ACHN renal
OVCAR-5 ovarian = system: OVCAR-5 ovarian
RPMI-8226 leukemia = system: RPMI-8226 leukemia
NCI-H522 lung = system: NCI-H522 lung
SN12C renal = system: SN12C renal
HCT-15 colon = system: HCT-15 colon
TK-10 renal = system: TK-10 renal
CCRF-CEM leukemia = system: CCRF-CEM leukemia
CAKI-1 renal = system: CAKI-1 renal
K-562 leukemia = system: K-562 leukemia
HT29 colon = system: HT29 colon
OVCAR-8 ovarian = system: OVCAR-8 ovarian
NCI-H226 lung = system: NCI-H226 lung
MALME-3M melanoma = system: MALME-3M melanoma
MDA-MB-435 = system: MDA-MB-435
HOP-62 NSCLC = system: HOP-62 NSCLC
SNB-19 CNS = system: SNB-19 CNS
SK-MEL-5 melanoma = system: SK-MEL-5 melanoma
SF-268 CNS = system: SF-268 CNS
PC-3 prostate = system: PC-3 prostate
HS 578T breast = system: HS 578T breast
LOX IMVI melanoma = system: LOX IMVI melanoma
SF-539 CNS = system: SF-539 CNS
SNB-75 CNS = system: SNB-75 CNS
SF-295 CNS = system: SF-295 CNS
RXF 393 renal = system: RXF 393 renal

Question: What does the source list for `COc1ccc2nc(NC(=O)COc3cc(/C=C\c4cc(OC)c(OC)c(OC)c4)ccc3OC)sc2c1`?
Answer: GI50 (UO-31 renal): 4.31 µM; TGI (UO-31 renal): > 100 µM; GI50 (NCI/ADR-RES ovarian): 2.3 µM; TGI (NCI/ADR-RES ovarian): 7.46 µM; GI50 (UACC-257 melanoma): 63.9 µM; TGI (UACC-257 melanoma): > 100 µM; GI50 (MOLT-4 leukemia): 3.87 µM; TGI (MOLT-4 leukemia): > 100 µM; GI50 (DU-145 prostate): 2.04 µM; TGI (DU-145 prostate): 6.96 µM; GI50 (IGROV1 ovarian): 7 µM; TGI (IGROV1 ovarian): > 100 µM; GI50 (SW-620 colon): 5.1 µM; TGI (SW-620 colon): > 100 µM; GI50 (EKVX NSCLC): 5.11 µM; TGI (EKVX NSCLC): > 100 µM; GI50 (786-0 renal): 7.52 µM; TGI (786-0 renal): > 100 µM; GI50 (U251 CNS): 4 µM; TGI (U251 CNS): > 100 µM; GI50 (BT-549 breast): 21.2 µM; TGI (BT-549 breast): > 100 µM; GI50 (T-47D breast): 4.03 µM; TGI (T-47D breast): > 100 µM; GI50 (NCI-H23 lung): 3.91 µM; TGI (NCI-H23 lung): > 100 µM; GI50 (M14 melanoma): 4.33 µM; TGI (M14 melanoma): > 100 µM; GI50 (SR leukemia): 3.69 µM; TGI (SR leukemia): > 100 µM; GI50 (SK-MEL-2 melanoma): 4.07 µM; TGI (SK-MEL-2 melanoma): > 100 µM; GI50 (MDA-MB-231 breast): 5.4 µM; TGI (MDA-MB-231 breast): > 100 µM; GI50 (KM12 colon): 3.12 µM; TGI (KM12 colon): 21.2 µM; GI50 (NCI-H460 lung): 3.73 µM; TGI (NCI-H460 lung): > 100 µM; GI50 (OVCAR-4 ovarian): 5.31 µM; TGI (OVCAR-4 ovarian): > 100 µM; GI50 (A549 NSCLC): 5.18 µM; TGI (A549 NSCLC): > 100 µM; GI50 (HCT-116 colon): 3.7 µM; TGI (HCT-116 colon): > 100 µM; GI50 (HOP-92 NSCLC): 6.28 µM; TGI (HOP-92 NSCLC): > 100 µM; GI50 (HCC-2998 colon): 7.35 µM; TGI (HCC-2998 colon): > 100 µM; GI50 (SK-MEL-28 melanoma): 4.41 µM; TGI (SK-MEL-28 melanoma): > 100 µM; GI50 (UACC-62 melanoma): 5.93 µM; TGI (UACC-62 melanoma): > 100 µM; GI50 (MCF7 breast): 2.88 µM; TGI (MCF7 breast): > 100 µM; GI50 (A498 renal): 3.5 µM; TGI (A498 renal): > 100 µM; GI50 (COLO 205 colon): 3.89 µM; TGI (COLO 205 colon): > 100 µM; GI50 (OVCAR-3 ovarian): 2.17 µM; TGI (OVCAR-3 ovarian): 5.02 µM; GI50 (SK-OV-3 ovarian): 4.69 µM; TGI (SK-OV-3 ovarian): > 100 µM; GI50 (ACHN renal): 7.77 µM; TGI (ACHN renal): > 100 µM; GI50 (OVCAR-5 ovarian): 5.89 µM; TGI (OVCAR-5 ovarian): > 100 µM; GI50 (RPMI-8226 leukemia): 5.43 µM; TGI (RPMI-8226 leukemia): > 100 µM; GI50 (NCI-H522 lung): 3.09 µM; TGI (NCI-H522 lung): > 100 µM; GI50 (SN12C renal): 5.75 µM; TGI (SN12C renal): > 100 µM; GI50 (HCT-15 colon): 2.89 µM; TGI (HCT-15 colon): > 100 µM; GI50 (TK-10 renal): 7.54 µM; TGI (TK-10 renal): > 100 µM; GI50 (CCRF-CEM leukemia): 3.87 µM; TGI (CCRF-CEM leukemia): > 100 µM; GI50 (CAKI-1 renal): 3.2 µM; TGI (CAKI-1 renal): > 100 µM; GI50 (K-562 leukemia): 3.6 µM; TGI (K-562 leukemia): > 100 µM; GI50 (HT29 colon): 3.34 µM; TGI (HT29 colon): > 100 µM; GI50 (OVCAR-8 ovarian): 5.28 µM; TGI (OVCAR-8 ovarian): > 100 µM; GI50 (NCI-H226 lung): 4.51 µM; TGI (NCI-H226 lung): > 100 µM; GI50 (MALME-3M melanoma): > 100 µM; TGI (MALME-3M melanoma): > 100 µM; GI50 (MDA-MB-435): 1.16 µM; TGI (MDA-MB-435): 6.44 µM; GI50 (HOP-62 NSCLC): 23.3 µM; TGI (HOP-62 NSCLC): > 100 µM; GI50 (SNB-19 CNS): 6.3 µM; TGI (SNB-19 CNS): > 100 µM; GI50 (SK-MEL-5 melanoma): 2.68 µM; TGI (SK-MEL-5 melanoma): 38.4 µM; GI50 (SF-268 CNS): 4.31 µM; TGI (SF-268 CNS): > 100 µM; GI50 (PC-3 prostate): 4.45 µM; TGI (PC-3 prostate): > 100 µM; GI50 (HS 578T breast): 4.15 µM; TGI (HS 578T breast): > 100 µM; GI50 (LOX IMVI melanoma): 4.17 µM; TGI (LOX IMVI melanoma): > 100 µM

Question: `CC(Cc1ccc(O)cc1)NCC(O)c1ccc(O)c(O)c1` (stereo unspecified) was tested. Which TGI (UO-31 renal) did it give?
Answer: > 100 µM

Question: And the TGI (NCI/ADR-RES ovarian)?
Answer: > 100 µM

Question: What about the TGI (UACC-257 melanoma) of the same compound?
Answer: > 100 µM

Question: What about the TGI (MOLT-4 leukemia) of the same compound?
Answer: > 100 µM

Question: What about the TGI (DU-145 prostate) of the same compound?
Answer: > 100 µM

Question: And the TGI (IGROV1 ovarian)?
Answer: > 100 µM

Question: And the TGI (SW-620 colon)?
Answer: > 100 µM

Question: And the TGI (EKVX NSCLC)?
Answer: > 100 µM

Question: What about the TGI (786-0 renal) of the same compound?
Answer: > 100 µM

Question: And the TGI (U251 CNS)?
Answer: > 100 µM

Question: And the TGI (SF-539 CNS)?
Answer: > 100 µM

Question: What about the TGI (BT-549 breast) of the same compound?
Answer: > 100 µM

Question: And the TGI (T-47D breast)?
Answer: > 100 µM

Question: And the TGI (NCI-H23 lung)?
Answer: > 100 µM

Question: And the TGI (M14 melanoma)?
Answer: > 100 µM

Question: What about the TGI (SR leukemia) of the same compound?
Answer: > 100 µM

Question: What about the TGI (SK-MEL-2 melanoma) of the same compound?
Answer: > 100 µM

Question: And the TGI (MDA-MB-231 breast)?
Answer: > 100 µM

Question: What about the TGI (KM12 colon) of the same compound?
Answer: > 100 µM

Question: What about the TGI (NCI-H460 lung) of the same compound?
Answer: > 100 µM

Question: And the TGI (OVCAR-4 ovarian)?
Answer: > 100 µM

Question: What about the TGI (A549 NSCLC) of the same compound?
Answer: > 100 µM

Question: What about the TGI (HCT-116 colon) of the same compound?
Answer: > 100 µM

Question: And the TGI (HOP-92 NSCLC)?
Answer: > 100 µM

Question: And the TGI (SK-MEL-28 melanoma)?
Answer: > 100 µM

Question: What about the TGI (UACC-62 melanoma) of the same compound?
Answer: > 100 µM

Question: And the TGI (SNB-75 CNS)?
Answer: > 100 µM

Question: And the TGI (MCF7 breast)?
Answer: > 100 µM

Question: And the TGI (A498 renal)?
Answer: > 100 µM

Question: And the TGI (OVCAR-3 ovarian)?
Answer: > 100 µM

Question: What about the TGI (SK-OV-3 ovarian) of the same compound?
Answer: > 100 µM

Question: And the TGI (ACHN renal)?
Answer: > 100 µM

Question: And the TGI (OVCAR-5 ovarian)?
Answer: > 100 µM

Question: And the TGI (RPMI-8226 leukemia)?
Answer: > 100 µM

Question: What about the TGI (NCI-H522 lung) of the same compound?
Answer: > 100 µM

Question: What about the TGI (SF-295 CNS) of the same compound?
Answer: > 100 µM

Question: What about the TGI (SN12C renal) of the same compound?
Answer: > 100 µM

Question: And the TGI (HCT-15 colon)?
Answer: > 100 µM

Question: And the TGI (TK-10 renal)?
Answer: > 100 µM

Question: What about the TGI (CCRF-CEM leukemia) of the same compound?
Answer: > 100 µM

Question: And the TGI (CAKI-1 renal)?
Answer: > 100 µM

Question: What about the TGI (K-562 leukemia) of the same compound?
Answer: > 100 µM

Question: And the TGI (HT29 colon)?
Answer: > 100 µM

Question: What about the TGI (OVCAR-8 ovarian) of the same compound?
Answer: > 100 µM

Question: What about the TGI (NCI-H226 lung) of the same compound?
Answer: > 100 µM

Question: What about the TGI (MALME-3M melanoma) of the same compound?
Answer: > 100 µM

Question: What about the TGI (MDA-MB-435) of the same compound?
Answer: > 100 µM

Question: And the TGI (RXF 393 renal)?
Answer: > 100 µM

Question: What about the TGI (HOP-62 NSCLC) of the same compound?
Answer: > 100 µM

Question: And the TGI (SNB-19 CNS)?
Answer: > 100 µM

Question: And the TGI (SK-MEL-5 melanoma)?
Answer: > 100 µM

Question: And the TGI (SF-268 CNS)?
Answer: > 100 µM

Question: What about the TGI (PC-3 prostate) of the same compound?
Answer: > 100 µM

Question: And the TGI (HS 578T breast)?
Answer: > 100 µM

Question: And the TGI (LOX IMVI melanoma)?
Answer: > 100 µM
